Earlier results on one compound are cited in patent US20250228797A1, “SYNERGIC AND STABLE PHARMACEUTICAL COMPOSITION OF AN NSAID AND AN OPIOID ANALGESIC FOR PAIN AND INFLAMMATION” (LABORATORIOS SILANES, S.A. DE C.V., priority 2024, published 2025).

Data set [1] deals with moderate to severe post-operatory pain. Particulars: intravenous or intramuscular.
For data set [2] the following is noted: in vivo.

Regarding `COc1cccc([C@@]2(O)CCCC[C@@H]2CN(C)C)c1` [tramadol, (1R,2R)-2-[(dimethylamino)methyl]-1-(3-methoxyphenyl)cyclohexan-1-ol], in data set [1], the “Analgesic potency relative to nalbuphine” value was “one-fifth” and the “Analgesic potency relative to pethidine (meperidine)” value is on record as “equivalent”. The “Incidence of serious adverse reactions” value in data set [2] is on record as “less than 1%”.
